The target of the first experiment is Insulin receptor (Homo sapiens, UniProt P06213). As to the kind of experiment: Inhibition of IR.
Chain of Insulin receptor (P06213 28-758 limits assumed): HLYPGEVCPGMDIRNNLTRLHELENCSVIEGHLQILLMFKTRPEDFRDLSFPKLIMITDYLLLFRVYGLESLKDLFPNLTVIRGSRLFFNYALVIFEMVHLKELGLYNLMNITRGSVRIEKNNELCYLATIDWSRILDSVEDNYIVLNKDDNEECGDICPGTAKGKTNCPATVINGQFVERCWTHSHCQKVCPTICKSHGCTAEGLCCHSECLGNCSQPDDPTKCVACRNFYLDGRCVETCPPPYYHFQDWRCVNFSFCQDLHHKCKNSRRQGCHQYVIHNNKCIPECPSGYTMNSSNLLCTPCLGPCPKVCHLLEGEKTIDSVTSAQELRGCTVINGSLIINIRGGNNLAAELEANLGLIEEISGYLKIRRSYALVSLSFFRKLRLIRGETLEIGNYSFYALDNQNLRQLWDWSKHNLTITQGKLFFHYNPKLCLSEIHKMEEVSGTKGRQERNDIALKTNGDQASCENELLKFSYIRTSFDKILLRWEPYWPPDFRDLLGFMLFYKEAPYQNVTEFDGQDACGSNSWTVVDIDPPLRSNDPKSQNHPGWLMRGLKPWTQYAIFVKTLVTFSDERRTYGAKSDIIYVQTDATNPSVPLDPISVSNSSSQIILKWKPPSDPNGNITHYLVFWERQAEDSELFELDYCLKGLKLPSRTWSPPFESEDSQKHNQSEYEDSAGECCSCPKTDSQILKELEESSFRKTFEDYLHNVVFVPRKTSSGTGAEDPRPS
Chain of Insulin receptor (P06213 763-1382 limits assumed): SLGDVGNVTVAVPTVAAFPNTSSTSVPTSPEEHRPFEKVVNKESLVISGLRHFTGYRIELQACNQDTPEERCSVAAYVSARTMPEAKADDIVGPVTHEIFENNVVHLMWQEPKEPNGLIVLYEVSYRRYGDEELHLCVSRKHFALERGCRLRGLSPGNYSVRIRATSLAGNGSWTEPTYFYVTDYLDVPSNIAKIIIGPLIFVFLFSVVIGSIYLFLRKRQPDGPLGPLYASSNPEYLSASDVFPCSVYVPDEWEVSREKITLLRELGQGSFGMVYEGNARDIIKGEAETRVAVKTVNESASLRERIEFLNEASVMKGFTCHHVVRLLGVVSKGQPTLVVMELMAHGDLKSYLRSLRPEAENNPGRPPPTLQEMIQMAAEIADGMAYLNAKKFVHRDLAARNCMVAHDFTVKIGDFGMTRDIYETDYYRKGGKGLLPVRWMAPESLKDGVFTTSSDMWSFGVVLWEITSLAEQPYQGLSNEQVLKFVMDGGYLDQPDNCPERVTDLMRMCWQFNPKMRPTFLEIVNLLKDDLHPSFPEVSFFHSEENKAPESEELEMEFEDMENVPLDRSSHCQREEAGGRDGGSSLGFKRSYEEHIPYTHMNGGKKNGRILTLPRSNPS
In turn, `CCN1CCc2ccc(Nc3ncc(Cl)c(N[C@@H]4CCCC[C@H]4NS(C)(=O)=O)n3)cc2CC1` registered an IC50 of 920 nM.
On the same count and under the same terms, the figure for `COc1cc(N2CCOCC2)ccc1Nc1ncc(Cl)c(N[C@@H]2CCCC[C@H]2NS(C)(=O)=O)n1` is 1700 nM; for `COCCN1CCc2ccc(Nc3ncc(Cl)c(NC4CCCCC4)n3)cc2CC1` it is 77 nM.
Compound `COCCN1CCc2ccc(Nc3ncc(Cl)c(N[C@@H]4CCCC[C@H]4NS(C)(=O)=O)n3)cc2CC1` had an IC50 of 540 nM.
The same measure, in the same setting: the figure for `CCS(=O)(=O)N[C@@H]1CCCC[C@H]1Nc1nc(Nc2ccc3c(c2)CCN(CCOC)CC3)ncc1Cl` is 930 nM; for `COc1cc(N2CCOCC2)ccc1Nc1ncc(Cl)c(N[C@@H]2CCCC[C@@H]2NS(C)(=O)=O)n1` (racemic) it is 180 nM.
As for `CCN1CCc2ccc(Nc3ncc(Cl)c(N[C@@H]4CCCC[C@H]4NC(=O)C(F)(F)F)n3)cc2CC1`, half-maximal inhibition (IC50) was put at 740 nM.
On the same count and under the same terms, the result for `COCCN1CCc2ccc(Nc3ncc(Cl)c(N[C@@H]4CCCC[C@H]4NS(=O)(=O)CC(F)(F)F)n3)cc2CC1` reads 840 nM.
Compound `COc1cc(N2CCOCC2)ccc1Nc1ncc(Cl)c(N[C@H]2CCCC[C@@H]2NS(C)(=O)=O)n1` returned an IC50 of 6300 nM.
Still for that read-out and setting: the figure for `CCN([C@@H]1CCCC[C@H]1Nc1nc(Nc2cc3c(cc2OC)CCN(CCOC)CC3)ncc1Cl)S(C)(=O)=O` is 430 nM; for `CCN1CCc2ccc(Nc3ncc(Cl)c(N[C@@H]4CCCC[C@H]4NC(=O)N(C)C)n3)cc2CC1` it is 150 nM; for `COCCN1CCc2ccc(Nc3ncc(Cl)c(N[C@@H]4CCCC[C@H]4NC(=O)C(F)(F)F)n3)cc2CC1` it is 710 nM.
Consider `CCN1CCc2ccc(Nc3ncc(Cl)c(N[C@@H]4CCCC[C@H]4NC(C)=O)n3)cc2CC1`, for which half-maximal inhibition (IC50) required 150 nM.

The next experiment has as its target T1, ALK tyrosine kinase receptor (Homo sapiens, UniProt Q9UM73). As to the kind of experiment: Inhibition of ALK.
Target sequence in this assay (Q9UM73 whole entry): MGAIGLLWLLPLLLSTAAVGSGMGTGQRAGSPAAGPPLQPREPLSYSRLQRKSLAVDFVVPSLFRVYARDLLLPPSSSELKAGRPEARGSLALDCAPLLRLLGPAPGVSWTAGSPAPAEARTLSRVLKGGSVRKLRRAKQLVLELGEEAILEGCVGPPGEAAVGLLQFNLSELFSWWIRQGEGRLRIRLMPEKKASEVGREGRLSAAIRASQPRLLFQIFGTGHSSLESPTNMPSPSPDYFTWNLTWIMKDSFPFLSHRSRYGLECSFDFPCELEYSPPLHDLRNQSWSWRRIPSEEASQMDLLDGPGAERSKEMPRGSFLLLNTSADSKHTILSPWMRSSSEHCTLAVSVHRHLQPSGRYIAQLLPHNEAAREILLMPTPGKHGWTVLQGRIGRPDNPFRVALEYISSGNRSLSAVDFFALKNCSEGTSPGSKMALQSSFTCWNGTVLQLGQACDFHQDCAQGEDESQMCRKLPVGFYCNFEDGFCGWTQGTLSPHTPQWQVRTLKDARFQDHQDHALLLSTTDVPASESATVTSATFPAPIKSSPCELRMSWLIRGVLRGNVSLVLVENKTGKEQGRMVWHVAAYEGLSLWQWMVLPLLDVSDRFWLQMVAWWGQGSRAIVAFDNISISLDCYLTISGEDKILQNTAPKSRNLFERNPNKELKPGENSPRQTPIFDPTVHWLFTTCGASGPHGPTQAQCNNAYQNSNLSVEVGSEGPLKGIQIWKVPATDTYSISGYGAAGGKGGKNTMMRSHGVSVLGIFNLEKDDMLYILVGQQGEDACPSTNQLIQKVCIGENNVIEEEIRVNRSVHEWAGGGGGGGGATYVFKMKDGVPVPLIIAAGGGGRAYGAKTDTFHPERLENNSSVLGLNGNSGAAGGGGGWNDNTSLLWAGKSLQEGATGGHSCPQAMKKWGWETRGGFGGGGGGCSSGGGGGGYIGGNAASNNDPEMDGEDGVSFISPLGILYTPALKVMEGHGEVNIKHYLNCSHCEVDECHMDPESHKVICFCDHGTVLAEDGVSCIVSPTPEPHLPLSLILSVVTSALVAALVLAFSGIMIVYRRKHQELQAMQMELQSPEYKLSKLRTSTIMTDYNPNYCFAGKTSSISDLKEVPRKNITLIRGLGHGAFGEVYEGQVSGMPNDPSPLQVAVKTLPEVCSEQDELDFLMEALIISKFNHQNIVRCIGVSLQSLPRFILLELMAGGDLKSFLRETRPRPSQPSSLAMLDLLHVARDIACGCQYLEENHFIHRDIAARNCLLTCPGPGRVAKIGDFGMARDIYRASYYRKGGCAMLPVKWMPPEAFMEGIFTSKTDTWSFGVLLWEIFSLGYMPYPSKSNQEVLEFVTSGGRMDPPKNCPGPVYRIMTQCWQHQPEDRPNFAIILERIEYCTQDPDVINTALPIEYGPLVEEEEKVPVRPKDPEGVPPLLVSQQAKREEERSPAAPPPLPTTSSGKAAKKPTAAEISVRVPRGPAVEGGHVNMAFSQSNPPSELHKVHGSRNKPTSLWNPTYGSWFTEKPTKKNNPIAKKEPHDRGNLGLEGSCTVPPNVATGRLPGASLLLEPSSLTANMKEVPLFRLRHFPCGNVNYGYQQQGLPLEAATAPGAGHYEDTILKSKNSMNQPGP
On to `CCN1CCc2ccc(Nc3ncc(Cl)c(N[C@@H]4CCCC[C@H]4NS(C)(=O)=O)n3)cc2CC1`, for which half-maximal inhibition (IC50) was put at 9 nM.
Same read-out and setting: the figure for `COCCN1CCc2ccc(Nc3ncc(Cl)c(N[C@H]4CC[C@@H](NS(C)(=O)=O)CC4)n3)cc2CC1` is 220 nM; for `COCCN1CCc2ccc(Nc3ncc(Cl)c(N[C@@H]4CCC[C@@H](NS(C)(=O)=O)C4)n3)cc2CC1` (racemic) it is greater than 3000 nM; for `COCCN1CCc2ccc(Nc3ncc(Cl)c(N[C@@H]4CCCC[C@H]4N)n3)cc2CC1` it is 680 nM.
As to `COc1cc(N2CCOCC2)ccc1Nc1ncc(Cl)c(N[C@@H]2CCCC[C@H]2NS(C)(=O)=O)n1`, inhibition was half-maximal at 10 nM (IC50).
The same measure, in the same setting: the figure for `COCCN1CCc2ccc(Nc3ncc(Cl)c(N[C@@H]4CCCC[C@H]4O)n3)cc2CC1` (racemic) is greater than 3000 nM; for `COCCN1CCc2ccc(Nc3ncc(Cl)c(N[C@@H]4CCC[C@H](NS(C)(=O)=O)C4)n3)cc2CC1` (racemic) it is greater than 3000 nM; for `COCCN1CCc2ccc(Nc3ncc(Cl)c(NC4CCCCC4)n3)cc2CC1` it is 78 nM.
The compound `COCCN1CCc2ccc(Nc3ncc(Cl)c(N[C@@H]4CCCC[C@H]4NS(C)(=O)=O)n3)cc2CC1` had an IC50 of 9 nM.
`CCS(=O)(=O)N[C@@H]1CCCC[C@H]1Nc1nc(Nc2ccc3c(c2)CCN(CCOC)CC3)ncc1Cl` showed an IC50 of 50 nM.
The same measure, in the same setting: the result for `COc1cc(N2CCOCC2)ccc1Nc1ncc(Cl)c(N[C@@H]2CCCC[C@@H]2NS(C)(=O)=O)n1` (racemic) reads 330 nM; that for `CCN1CCc2ccc(Nc3ncc(Cl)c(N[C@@H]4CCCC[C@H]4NC(=O)C(F)(F)F)n3)cc2CC1`, 26 nM; that for `COCCN1CCc2ccc(Nc3ncc(Cl)c(N[C@@H]4CCCC[C@H]4NS(=O)(=O)CC(F)(F)F)n3)cc2CC1`, 31 nM.
Still for that read-out and setting: the figure for `COCCN1CCc2ccc(Nc3ncc(Cl)c(N[C@@H]4CCCC[C@H]4NS(=O)(=O)C4CC4)n3)cc2CC1` is 110 nM.
The same measure, in the same setting: the figure for `COc1cc(N2CCOCC2)ccc1Nc1ncc(Cl)c(N[C@H]2CCCC[C@@H]2NS(C)(=O)=O)n1` is greater than 10000 nM; for `COCCN1CCc2ccc(Nc3ncc(Cl)c(N[C@@H]4CCCC[C@H]4NS(=O)(=O)C(C)C)n3)cc2CC1` it is 130 nM.
The compound `CCN([C@@H]1CCCC[C@H]1Nc1nc(Nc2cc3c(cc2OC)CCN(CCOC)CC3)ncc1Cl)S(C)(=O)=O` came in with an IC50 of 20 nM.
As to `CCN1CCc2ccc(Nc3ncc(Cl)c(N[C@@H]4CCCC[C@H]4NC(=O)N(C)C)n3)cc2CC1`, the IC50 turned out to be 370 nM.
In the case of `COCCN1CCc2ccc(Nc3ncc(Cl)c(N[C@H]4CC[C@H](NS(C)(=O)=O)CC4)n3)cc2CC1`, the IC50 came out at 100 nM.
Same read-out and setting: the result for `COCCN1CCc2ccc(Nc3ncc(Cl)c(N[C@@H]4CCCC[C@H]4NC(=O)C(F)(F)F)n3)cc2CC1` reads 22 nM; that for `CCN1CCc2ccc(Nc3ncc(Cl)c(N[C@@H]4CCCC[C@H]4NC(C)=O)n3)cc2CC1`, 9 nM.

The target of a further experiment is T1, ALK tyrosine kinase receptor. As to the kind of experiment: Inhibition of autophosphorylation of NPM-ALK in human Karpas-299 cells. It counts as cell-based.
Target sequence in this assay (Q9UM73 19-1620 limits assumed): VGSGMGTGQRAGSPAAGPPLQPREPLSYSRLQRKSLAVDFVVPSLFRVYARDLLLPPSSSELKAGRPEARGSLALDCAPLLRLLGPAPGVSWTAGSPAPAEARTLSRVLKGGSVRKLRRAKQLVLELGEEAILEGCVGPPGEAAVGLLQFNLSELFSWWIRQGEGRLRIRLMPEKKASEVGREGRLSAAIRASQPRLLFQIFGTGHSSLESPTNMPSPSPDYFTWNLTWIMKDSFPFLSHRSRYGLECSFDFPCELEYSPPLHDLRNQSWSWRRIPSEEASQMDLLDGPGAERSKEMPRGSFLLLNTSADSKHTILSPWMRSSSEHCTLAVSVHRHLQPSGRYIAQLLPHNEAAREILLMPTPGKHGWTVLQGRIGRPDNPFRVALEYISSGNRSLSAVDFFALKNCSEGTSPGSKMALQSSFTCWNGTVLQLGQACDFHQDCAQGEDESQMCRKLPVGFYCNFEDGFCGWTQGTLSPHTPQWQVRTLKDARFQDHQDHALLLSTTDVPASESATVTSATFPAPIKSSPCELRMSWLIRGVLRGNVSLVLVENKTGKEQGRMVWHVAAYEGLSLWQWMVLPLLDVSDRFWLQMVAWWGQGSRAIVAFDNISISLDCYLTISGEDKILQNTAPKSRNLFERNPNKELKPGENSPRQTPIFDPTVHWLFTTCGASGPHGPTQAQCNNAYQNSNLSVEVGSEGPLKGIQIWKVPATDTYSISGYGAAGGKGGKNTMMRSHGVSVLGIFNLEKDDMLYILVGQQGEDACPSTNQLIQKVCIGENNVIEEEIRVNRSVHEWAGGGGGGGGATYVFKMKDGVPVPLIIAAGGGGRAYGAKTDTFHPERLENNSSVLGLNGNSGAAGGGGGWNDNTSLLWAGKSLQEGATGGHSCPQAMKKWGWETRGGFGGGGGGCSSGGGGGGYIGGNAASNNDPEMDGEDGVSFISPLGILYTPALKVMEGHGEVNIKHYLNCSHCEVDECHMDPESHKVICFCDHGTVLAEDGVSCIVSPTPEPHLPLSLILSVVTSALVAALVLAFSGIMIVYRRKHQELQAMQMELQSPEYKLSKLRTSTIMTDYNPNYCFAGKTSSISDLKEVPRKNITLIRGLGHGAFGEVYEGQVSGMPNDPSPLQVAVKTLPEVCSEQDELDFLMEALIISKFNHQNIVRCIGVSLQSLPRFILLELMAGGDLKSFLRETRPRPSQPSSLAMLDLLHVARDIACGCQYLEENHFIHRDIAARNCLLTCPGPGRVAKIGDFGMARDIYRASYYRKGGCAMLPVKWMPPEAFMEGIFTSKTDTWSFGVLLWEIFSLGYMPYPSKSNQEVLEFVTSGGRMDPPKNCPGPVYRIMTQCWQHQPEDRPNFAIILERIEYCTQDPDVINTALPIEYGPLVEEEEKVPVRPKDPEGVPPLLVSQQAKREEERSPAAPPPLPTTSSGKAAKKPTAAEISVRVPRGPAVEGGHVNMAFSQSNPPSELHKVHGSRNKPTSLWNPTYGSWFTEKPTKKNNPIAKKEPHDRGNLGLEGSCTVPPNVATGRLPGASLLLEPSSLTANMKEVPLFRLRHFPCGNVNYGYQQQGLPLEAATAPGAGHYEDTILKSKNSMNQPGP
`CCN1CCc2ccc(Nc3ncc(Cl)c(N[C@@H]4CCCC[C@H]4NS(C)(=O)=O)n3)cc2CC1` had an IC50 of 60 nM.
`COc1cc(N2CCOCC2)ccc1Nc1ncc(Cl)c(N[C@@H]2CCCC[C@H]2NS(C)(=O)=O)n1` showed an IC50 of 65 nM.
The same measure, in the same setting: the figure for `COCCN1CCc2ccc(Nc3ncc(Cl)c(N[C@@H]4CCCC[C@H]4NS(C)(=O)=O)n3)cc2CC1` is 73 nM; for `CCN1CCc2ccc(Nc3ncc(Cl)c(N[C@@H]4CCCC[C@H]4NC(=O)C(F)(F)F)n3)cc2CC1` it is 200 nM.
Still for that read-out and setting: the figure for `COCCN1CCc2ccc(Nc3ncc(Cl)c(N[C@@H]4CCCC[C@H]4NS(=O)(=O)CC(F)(F)F)n3)cc2CC1` is 300 nM; for `CCN([C@@H]1CCCC[C@H]1Nc1nc(Nc2cc3c(cc2OC)CCN(CCOC)CC3)ncc1Cl)S(C)(=O)=O` it is 150 nM; for `COCCN1CCc2ccc(Nc3ncc(Cl)c(N[C@@H]4CCCC[C@H]4NC(=O)C(F)(F)F)n3)cc2CC1` it is 100 nM.
On the same count and under the same terms, the figure for `CCN1CCc2ccc(Nc3ncc(Cl)c(N[C@@H]4CCCC[C@H]4NC(C)=O)n3)cc2CC1` is 65 nM.

The record behind these values is ChEMBL document CHEMBL1795227, “Methanesulfonamido-cyclohexylamine derivatives of 2,4-diaminopyrimidine as potent ALK inhibitors” (Bioorg Med Chem Lett, 2011).
